Experimental findings from patent US8669247B2, “2,5-disubstituted arylsulfonamide CCR3 antagonists” (Axikin Pharmaceuticals, Inc., priority 2009, dated 2014) are described below.

Counter-ions that a name gives are not always drawn.

One data set deals with T1, CCR3 receptor (UniProt P51677).
T1 sequence (P51677 1-355): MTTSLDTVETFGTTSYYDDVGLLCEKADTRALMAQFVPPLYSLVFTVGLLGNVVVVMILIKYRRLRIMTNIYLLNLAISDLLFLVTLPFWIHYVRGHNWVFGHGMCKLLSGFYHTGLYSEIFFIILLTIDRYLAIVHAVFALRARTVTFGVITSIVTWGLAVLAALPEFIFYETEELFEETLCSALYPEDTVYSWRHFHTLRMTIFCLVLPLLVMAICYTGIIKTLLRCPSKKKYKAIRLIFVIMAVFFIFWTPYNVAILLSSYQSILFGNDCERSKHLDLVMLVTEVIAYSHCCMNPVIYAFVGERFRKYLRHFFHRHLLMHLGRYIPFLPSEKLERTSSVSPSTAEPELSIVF
The experiment in a line: CCR3 Receptor Binding Assay ([125I]-labeled human eotaxin/CCL11 displacement on cells). The note with it: Free (free form of the compound). The procedure: Cells were washed once with PBS and resuspended in a binding buffer (25 mM HEPES pH 7.6, 5 mM MgCl2, 1 mM CaCl2, 0.5% BSA, 0.1% NaN3), […] of cell suspension (2×10^5 cells/well) and 0.1 nM [^125I]-labeled human eotaxin/CCL11 (2000 Ci/mmol specific activity) were mixed in a 96-well U-bottom polypropylene plate, and incubated for 60 min at room temperature for the binding reaction. The cell suspension was then transferred to a filtration plate (#MAFB, Millipore), and washed 3 times with the binding buffer containing 0.5 M NaCl, scintillant added, and the radioactivity was counted on a TopCount (Packard). For the determination of non-specific binding, the cell suspension and [^125I]-labeled human eotaxin/CCL11 were incubated in the presence of 500 nM of unlabeled human eotaxin/CCL11. See, lino et al., “Molecular cloning and functional characterization of cynomolgus monkey (Macaca fascicularis) CC chemokine receptor, CCR3,” Cytokine 2002, 19, 276-286.
In general, Ki refers to the dissociation constant of the complex between target and ligand, obtained from inhibition or displacement. In the case of `CC1CCN(S(=O)(=O)c2cc(C#N)ccc2Oc2cc(Cl)ccc2Cl)CC1` [Compound 87, 4-(2,5-Dichlorophenoxy)-3-(4-methylpiperidin-1-ylsulfonyl)benzonitrile], the Ki is > 5 nM.

For `CC(C)N1CCN(S(=O)(=O)c2cc(C#N)ccc2Oc2cc(Cl)ccc2Cl)CC1` [Compound 88, 4-(2,5-Dichlorophenoxy)-3-(4-isopropylpiperazin-1-ylsulfonyl)benzonitrile], the Ki is ≤ 10 nM.

In turn, `CCC(CC)N1CCN(S(=O)(=O)c2cc(C#N)ccc2Oc2cc(Cl)ccc2Cl)CC1` [Compound 89, 4-(2,5-Dichlorophenoxy)-3-(4-(pentan-3-yl)piperazin-1-ylsulfonyl)-benzonitrile] returned an inhibition constant (Ki) of 10 to 25 nM.

Consider `CCCC(C)N1CCN(S(=O)(=O)c2cc(C#N)ccc2Oc2cc(Cl)ccc2Cl)CC1` (stereo not drawn) [Compound 90, 4-(2,5-Dichlorophenoxy)-3-(4-(pentan-2-yl)piperazin-1-ylsulfonyl)-benzonitrile], for which the Ki fell in the range of 10 to 25 nM.

Regarding `N#Cc1ccc(Oc2cc(Cl)ccc2Cl)c(S(=O)(=O)N2CCN(C3CCCCCC3)CC2)c1` [Compound 91, 3-(4-Cycloheptylpiperazin-1-ylsulfonyl)-4-(2,5-dichlorophenoxy)benzonitrile], the Ki was in the range of 10 to 25 nM.

Regarding `CN1CCCN(S(=O)(=O)c2cc(C#N)ccc2Oc2cc(Cl)ccc2Cl)CC1` [Compound 92, 4-(2,5-Dichlorophenoxy)-3-(4-methyl-1,4-diazepan-1-ylsulfonyl)benzonitrile], the inhibition constant Ki fell in the range of 25 to 100 nM.

As to `CCCCc1nc(Cl)c2n1C(=O)N(C1CCN(S(=O)(=O)c3cc(C#N)ccc3Oc3cc(Cl)ccc3Cl)CC1)C2` [Compound 93, 3-(4-(5-Butyl-7-chloro-3-oxo-1H-imidazo[1,5-c]imidazol-2(3H)-yl)piperidin-1-ylsulfonyl)-4-(2,5-dichlorophenoxy)benzonitrile], the Ki was > 5 nM.

For `N#Cc1ccc(Oc2cc(Cl)ccc2Cl)c(S(=O)(=O)NCCN2CCOCC2)c1` [Compound 95, 5-Cyano-2-(2,5-dichlorophenoxy)-N-(2-morpholinoethyl)benzenesulfonamide], the Ki is 100 to 500 nM.

In turn, `CN1CCN(S(=O)(=O)c2cc(C#N)ccc2Oc2cc(Cl)ccc2Cl)CC1` [Compound 96, 4-(2,5-Dichlorophenoxy)-3-(4-methylpiperazin-1-ylsulfonyl)benzonitrile] returned an inhibition constant (Ki) of 25 to 100 nM.

Regarding `CC(C)(O)C1CCN(S(=O)(=O)c2cc(C#N)ccc2Oc2cc(Cl)ccc2Cl)CC1` [Compound 97, 4-(2,5-Dichlorophenoxy)-3-(4-(2-hydroxypropan-2-yl)piperidin-1-ylsulfonyl)benzonitrile], the Ki fell in the range of 100 to 500 nM.

Take `CCN1CCN(S(=O)(=O)c2cc([N+](=O)[O-])ccc2Sc2cc(Cl)ccc2Cl)CC1` [Compound 99]: the Ki lay in the range of 10 to 25 nM.

As to `CCN1CCN(S(=O)(=O)c2cc([N+](=O)[O-])ccc2Oc2cc(Cl)ccc2Cl)CC1` [Compound 100, 1-(2-(2,5-Dichlorophenoxy)-5-nitrophenylsulfonyl)-4-ethylpiperazine], the Ki was ≤ 10 nM.

`CCN1CCN(S(=O)(=O)c2cc([N+](=O)[O-])ccc2Sc2cc(C)ccc2C)CC1` [Compound 101, 1-(2-(2,5-Dimethylphenylthio)-5-nitrophenylsulfonyl)-4-ethylpiperazine]: the Ki is > 5 nM.

As for `CCN1CCN(S(=O)(=O)c2cc([N+](=O)[O-])ccc2Oc2cc(C)ccc2C)CC1` [Compound 102, 1-(2-(2,5-Dimethylphenoxy)-5-nitrophenylsulfonyl)-4-ethylpiperazine], the inhibition constant (Ki) is > 5 nM.

Regarding `CC1CN(S(=O)(=O)c2cc([N+](=O)[O-])ccc2Sc2cc(Cl)ccc2Cl)CC(C)N1` (stereo not drawn) [Compound 103, 1-(2-(2,5-Dichlorophenylthio)-5-nitrophenylsulfonyl)-3,5-dimethylpiperazine], the inhibition constant (Ki) was > 5 nM.

In the case of `Cc1ccc(C)c(Sc2ccc([N+](=O)[O-])cc2S(=O)(=O)N2CC(C)NC(C)C2)c1` (stereo not drawn) [Compound 105, 1-(2-(2,5-Dimethylphenylthio)-5-nitrophenylsulfonyl)-3,5-dimethylpiperazine], the Ki is > 5 nM.

Take `Cc1ccc(C)c(Oc2ccc([N+](=O)[O-])cc2S(=O)(=O)N2CC(C)NC(C)C2)c1` (stereo not drawn) [Compound 106, 1-(2-(2,5-Dimethylphenoxy)-5-nitrophenylsulfonyl)-3,5-dimethylpiperazine]: the Ki is > 5 nM.

With `CC(C)N1CCN(S(=O)(=O)c2cc([N+](=O)[O-])ccc2Oc2cc(Cl)ccc2Cl)CC1` [Compound 107, 1-(2-(2,5-Dichlorophenoxy)-5-nitrophenylsulfonyl)-4-isopropylpiperazine], the Ki was ≤ 10 nM.

With `CC(C)N1CCN(S(=O)(=O)c2cc([N+](=O)[O-])ccc2Sc2cc(Cl)ccc2Cl)CC1` [Compound 108, 1-(2-(2,5-Dichlorophenylthio)-5-nitrophenylsulfonyl)-4-isopropylpiperazine], the inhibition constant Ki is ≤ 10 nM.

As to `Cc1ccc(C)c(Oc2ccc([N+](=O)[O-])cc2S(=O)(=O)N2CCN(C(C)C)CC2)c1` [Compound 109, 1-(2-(2,5-Dimethylphenoxy)-5-nitrophenylsulfonyl)-4-isopropylpiperazine], the Ki is > 5 nM.

For `O=[N+]([O-])c1ccc(Sc2cc(Cl)ccc2Cl)c(S(=O)(=O)N2CCN(C3CCCCC3)CC2)c1` [Compound 118, 1-Cyclohexyl-4-(2-(2,5-dichlorophenylthio)-5-nitrophenylsulfonyl)piperazine], the Ki lay in the range of 10 to 25 nM.

For the compound `O=[N+]([O-])c1ccc(Oc2cc(Cl)ccc2Cl)c(S(=O)(=O)N2CCN(C3CCCCC3)CC2)c1` [Compound 119, 1-Cyclohexyl-4-(2-(2,5-dichlorophenoxy)-5-nitrophenylsulfonyl)piperazine], the Ki was ≤ 10 nM.

Turning to `Cc1ccc(C)c(Sc2ccc([N+](=O)[O-])cc2S(=O)(=O)N2CCN(C3CCCCC3)CC2)c1` [Compound 120, 1-Cyclohexyl-4-(2-(2,5-dimethylphenylthio)-5-nitrophenylsulfonyl)piperazine], the Ki is > 5 nM.

Regarding `Cc1ccc(C)c(Oc2ccc([N+](=O)[O-])cc2S(=O)(=O)N2CCN(C3CCCCC3)CC2)c1` [Compound 121, 1-Cyclohexyl-4-(2-(2,5-dimethylphenoxy)-5-nitrophenylsulfonyl)piperazine], the Ki is ≤ 10 nM.

In the case of `O=C1CN(S(=O)(=O)c2cc([N+](=O)[O-])ccc2Sc2cc(Cl)ccc2Cl)CCN1` [Compound 124, 4-(2-(2,5-Dichlorophenylthio)-5-nitrophenylsulfonyl)piperazin-2-one], the Ki is ≤ 10 nM.

Consider `Cc1ccc(C)c(Sc2ccc([N+](=O)[O-])cc2S(=O)(=O)N2CCNC(=O)C2)c1` [Compound 125, 4-(2-(2,5-Dimethylphenylthio)-5-nitrophenylsulfonyl)piperazin-2-one], for which the Ki is > 5 nM.

Compound `O=C1CN(S(=O)(=O)c2cc([N+](=O)[O-])ccc2Oc2cc(Cl)ccc2Cl)CCN1` [Compound 126, 4-(2-(2,5-Dichlorophenoxy)-5-nitrophenylsulfonyl)piperazin-2-one] had a Ki of 10 to 25 nM.

In the case of `O=[N+]([O-])c1ccc(Sc2cc(Cl)ccc2Cl)c(S(=O)(=O)N2CCCNCC2)c1` [Compound 127, 1-(2-(2,5-Dichlorophenylthio)-5-nitrophenylsulfonyl)-1,4-diazepane], the Ki is > 5 nM.

As for `CN1CCN(S(=O)(=O)c2cc([N+](=O)[O-])ccc2Sc2cc(Cl)ccc2Cl)CC1` [Compound 133, 1-(2-(2,5-Dichlorophenylthio)-5-nitrophenylsulfonyl)-4-methylpiperazine], the inhibition constant Ki is > 5 nM.

For the compound `Cc1ccc(C)c(Sc2ccc(C#N)cc2S(=O)(=O)N2CCS(=O)(=O)CC2)c1` [Compound 140], the Ki was > 5 nM.

As to `O=[N+]([O-])c1ccc(Oc2cc(Cl)ccc2Cl)c(S(=O)(=O)N2CCNCC2)c1` [Compound 147, 1-(2-(2,5-Dichlorophenoxy)-5-nitrophenylsulfonyl)piperazine], the Ki is > 5 nM.

Staying with this data set, now noted: HCl: hydrochloric acid salt of the corresponding compound.
As to `CC(C)N1CCCN(S(=O)(=O)c2cc(C#N)ccc2Oc2cc(Cl)ccc2Cl)CC1` [Compound 98, 4-(2,5-Dichlorophenoxy)-3-(4-isopropyl-1,4-diazepan-1-ylsulfonyl)benzonitrile], the inhibition constant (Ki) was 25 to 100 nM.

Regarding `O=[N+]([O-])c1ccc(Oc2cc(Cl)ccc2Cl)c(S(=O)(=O)N2CCNCC2)c1` [Compound 147, 1-(2-(2,5-Dichlorophenoxy)-5-nitrophenylsulfonyl)piperazine], the Ki was in the range of 25 to 100 nM.

As to `Cc1ccc(C)c(Oc2ccc([N+](=O)[O-])cc2S(=O)(=O)N2CCNCC2)c1` [Compound 148, 1-(2-(2,5-Dimethylphenoxy)-5-nitrophenylsulfonyl)piperazine], the Ki was > 5 nM.

Test system in a further data set: not given
Experiment: not given
Conditions: not given
Usually melting point stands for the temperature of the solid-liquid transition. Compound `N#Cc1ccc(Oc2cc(F)ccc2F)c(S(=O)(=O)N2CCNCC2)c1` (as salt: hydrochloride) [Compound 52, 4-(2,5-Difluorophenoxy)-3-(piperazin-1-ylsulfonyl)benzonitrile] yielded a melting point of 125 to 143 °C.

Compound `CC1CN(S(=O)(=O)c2cc(C#N)ccc2Oc2cc(F)ccc2F)CC(C)N1` (stereo not drawn) (as salt: hydrochloride) [Compound 53, 4-(2,5-Difluorophenoxy)-3-(3,5-dimethylpiperazin-1-ylsulfonyl)benzonitrile] yielded a melting point of 157 to 159 °C.
